Experimental data reported in US10787453B2, “Octahydropyrrolopyrroles their preparation and use” (The Trustees of Columbia University in the City of New York, priority 2013, dated 2020).

How the values were obtained:
mice = conditions: cited from earlier work
[1] = tested on: retinal pigment epithelium cells; conditions: many cell types, including retinal pigment epithelium cells; cited from earlier work
RBP4 [2] = molecular target: T1, RBP4 (Homo sapiens (Human), UniProt P02753); conditions: cited from earlier work
serum RBP4 and retinol = conditions: in vivo; cited from earlier work
Abca4−/− mice = conditions: cited from earlier work
RBP4-TTR interaction [3] = molecular target: T2, RBP4-TTR interaction (Homo sapiens (Human), UniProt P02753); conditions: cited from earlier work
[4] = tested on: wild-type and Abca4−/− mice; assay: Efficacy in a mammalian model; assay type: in vivo, mouse; conditions: orally dosed for 3 weeks at 30 mg/kg
Description: (§1) The effectiveness of the compounds listed in Example 1-46 are tested in wild-type and Abca4−/− mice. The Abca4−/− mouse model manifests accelerated accumulation of lipofuscin in the RPE and is considered a pre-clinical efficacy model for a drug reducing lipofuscin accumulation. Compounds are orally dosed for 3 weeks at 30 mg/kg. There is a reduction in the serum RBP4 level in treated animals. The levels of A2E/isoA2E and other bisretinoids are reduced in treated mice.
as §1, with “octahydropyrrolopyrroles 66 and 67” for “compounds listed in Example 1-46”
as §1, with “octahydropyrrolopyrroles of the present invention” for “compounds listed in Example 1-46”

RBP4 [5] = molecular target: T1, RBP4; assay: Scintillation proximity RBP4 binding assay (SPA); conditions: for IC50: 10 nM 3H-Retinol, 50 nM biotinylated RBP4
Description: Scintillation Proximity RBP4 Binding Assay
Untagged human RBP4 purified from urine of tubular proteinuria patients was purchased from Fitzgerald Industries International. It was biotinylated using the EZ-Link Sulfo-NHS-LC-Biotinylation kit from Pierce following the manufacturer's recommendations. Binding experiments were performed in 96-well plates (OptiPlate, PerkinElmer) in a final assay volume of 100 μl per well in SPA buffer (1×PBS, pH 7.4, 1 mM EDTA, 0.1% BSA, 0.5% CHAPS). The reaction mix contained 10 nM ^3H-Retinol (48.7 Ci/mmol; PerkinElmer), 0.3 mg/well Streptavidin-PVT beads, 50 nM biotinylated RBP4 and a test compound. Nonspecific binding was determined in the presence of 20 μM of unlabeled retinol. The reaction mix was assembled in the dark under dim red light. The plates were sealed with clear tape (TopSeal-A: 96-well microplate, PerkinElmer), wrapped in the aluminum foil, and allowed to equilibrate 6 hours at room temperature followed by overnight incubation at +4° C. Radiocounts were measured using a TopCount NXT counter (Packard Instrument Company).

RBP4-TTR interaction [6] = molecular target: T2, RBP4-TTR interaction; assay: TR-FRET (HTRF) assay for retinol-induced RBP4-TTR interaction; assay type: biochemical; conditions: for IC50: in the presence of 1 μM retinol, read-out: HTRF assay for antagonists of RBP4-TTR interaction IC50
Text: TR-FRET Assay for Retinol-Induced RBP4-TTR Interaction
Binding of a desired RBP4 antagonist displaces retinol and induces hindrance for RBP4-TTR interaction resulting in the decreased FRET signal (FIG. 7). Bacterially expressed MBP-RBP4 and untagged TTR were used in this assay. For the use in the TR-FRET assay the maltose binding protein (MBP)-tagged human RBP4 fragment (amino acids 19-201) was expressed in the Gold(DE3)pLysS E. coli strain (Stratagene) using the pMAL-c4x vector. Following cell lysis, recombinant RBP4 was purified from the soluble fraction using the ACTA FPLC system (GE Healthcare) equipped with the 5-ml the MBP Trap HP column. Human untagged TTR was purchased from Calbiochem. Untagged TTR was labeled directly with Eu^3+ Cryptate-NHS using the HTRF Cryptate Labeling kit from CisBio following the manufacturer's recommendations. HTRF assay was performed in white low volume 384 well plates (Greiner-Bio) in a final assay volume of 16 μl per well. The reaction buffer contained 10 mM Tris-HCl pH 7.5, 1 mM DTT, 0.05% NP-40, 0.05% Prionex, 6% glycerol, and 400 mM KF. Each reaction contained 60 nM MBP-RBP4 and 2 nM TTR-Eu along with 26.7 nM of anti-MBP antibody conjugated with d2 (Cisbio). Titration of test compounds in this assay was conducted in the presence of 1 μM retinol. All reactions were assembled in the dark under dim red light and incubated overnight at +4° C. wrapped in aluminum foil. TR-FRET signal was measured in the SpectraMax M5e Multimode Plate Reader (Molecular Device). Fluorescence was excited at 337 nm and two readings per well were taken: Reading 1 for time-gated energy transfer from Eu(K) to d2 (337 nm excitation, 668 nm emission, counting delay 75 microseconds, counting window 100 microseconds) and Reading 2 for Eu(K) time-gated fluorescence (337 nm excitation, 620 nm emission, counting delay 400 microseconds, counting window 400 microseconds). The TR-FRET signal was expressed as the ratio of fluorescence intensity: Flu665/Flu620×10,000.

| Compound | formation of hemangiosarcomas (mice) | induction of apoptosis [1] | binding to RBP4 (RBP4 [2]) | displacement of all-trans retinol from RBP4 (RBP4 [2]) | ocular all-trans retinol uptake (serum RBP4 and retinol) | serum RBP4 and retinol (serum RBP4 and retinol) | A2E production (Abca4−/− mice) | RBP4-TTR interaction (RBP4-TTR interaction [3]) | levels of A2-DHP-PE and atRAL di-PE [4] | levels of A2E/isoA2E and other bisretinoids [4] | serum RBP4 level [4] | RBP4 binding (SPA), in words (RBP4 [5]) | IC50 (RBP4 [5]) | antagonism of retinol-dependent RBP4-TTR interaction (HTRF), in words (RBP4-TTR interaction [6]) | IC50 (RBP4-TTR interaction [6]) |
| --- | --- | --- | --- | --- | --- | --- | --- | --- | --- | --- | --- | --- | --- | --- | --- |
| CC1=C(/C=C/C(C)=C/C=C/C(C)=C/C(=O)Nc2ccc(O)cc2)C(C)(C)CCC1 [fenretinide, N-(4-hydroxy-phenyl)retinamide] | stimulate formation of hemangiosarcomas | extremely active inducer of apoptosis | bind to RBP4 | displace all-trans retinol from RBP4 | inhibit ocular all-trans retinol uptake | reduce serum RBP4 and retinol | reduced A2E production | disrupt the RBP4-TTR interaction | – | – | – | – | – | – | – |
| Cc1cc(C(=O)O)nc(N2C[C@@H]3CN(c4ccccc4C(F)(F)F)C[C@@H]3C2)n1 [Compound 67, 6-Methyl-2-((3aR,6aS)-5-(2-(trifluoromethyl)phenyl)hexahydropyrrolo[3,4-c]pyrrol-2(1H)-yl)pyrimidine-4-carboxylic Acid] | – | – | – | – | – | – | – | – | also reduced | reduced | reduction | – | – | – | – |
| Cc1ccc2nnc(C(=O)N3C[C@@H]4CN(c5ccccc5C(F)(F)F)C[C@@H]4C3)n2c1 [Compound 65, (6-Methyl-[1,2,4]triazolo[4,3-a]pyridin-3-yl)((3aR,6aS)-5-(2-(trifluoromethyl)phenyl)hexahydropyrrolo[3,4-c]pyrrol-2 (1H)-yl)methanone] | – | – | – | – | – | – | – | – | – | – | – | binded to RBP4 | 1.68 nM | antagonized retinol-dependent RBP4-TTR interaction | 20.8 nM |
| COC(=O)c1cc(C)nc(N2C[C@@H]3CN(c4ccccc4C(F)(F)F)C[C@@H]3C2)n1 [Compound 66, Methyl 6-methyl-2-((3aR,6aS)-5-(2-(trifluoromethyl)phenyl)hexahydropyrrolo[3,4-c]pyrrol-2(1H)-yl)pyrimidine-4-carboxylate] | – | – | – | – | – | – | – | – | also reduced | reduced | reduction | binded to RBP4 | 3.9 nM | antagonized retinol-dependent RBP4-TTR interaction | 74 nM |
